# Reference: article PMC4854315, “Discovery of a novel allosteric inhibitor-binding site in ERK5: comparison with the canonical kinase hinge ATP-binding site” (Acta Crystallographica. Section D, Structural Biology, 2016)
# Key:
# Assay in all cases: Z'-LYTE kinase panel
# Assay type in all cases: biochemical
# RPS6KA6 (RSK4) = target: T1, RPS6KA6 (RSK4) (Homo sapiens, UniProt Q9UK32)
# T1 construct: purchased ThermoFisher (SelectScreen, Z'-LYTE)
# Summary of the method: (§1)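 Compounds were profiled across a 225-kinase standard panel. Each kinase was run in the standard Z′-LYTE assay and percentage inhibition was recorded at a compound concentration of 10 µM.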
# PDGFRB (PDGFR beta) = target: T2, PDGFRB (PDGFR beta) (Homo sapiens, UniProt P09619)
# T2 construct: purchased ThermoFisher (SelectScreen, Z'-LYTE)
# Summary of the method: as §1
# MAPK14 (p38 alpha) = target: T3, MAPK14 (p38 alpha) (Homo sapiens, UniProt Q16539); details: 10 µM compound; ATP 100
# T3 construct: purchased ThermoFisher (SelectScreen, Z'-LYTE)
# Summary of the method: as §1
# MAPK9 (JNK2) = target: T4, MAPK9 (JNK2) (Homo sapiens, UniProt P45984); details: 10 µM compound; ATP 100
# T4 construct: purchased ThermoFisher (SelectScreen, Z'-LYTE)
# Summary of the method: as §1
# GRK5 = target: T5, GRK5 (Homo sapiens, UniProt P34947)
# T5 construct: purchased ThermoFisher (SelectScreen, Z'-LYTE)
# Summary of the method: as §1
# FLT3 = target: T6, FLT3 (Homo sapiens, UniProt P36888)
# T6 construct: purchased ThermoFisher (SelectScreen, Z'-LYTE)
# T6 sequence (P36888 27-993): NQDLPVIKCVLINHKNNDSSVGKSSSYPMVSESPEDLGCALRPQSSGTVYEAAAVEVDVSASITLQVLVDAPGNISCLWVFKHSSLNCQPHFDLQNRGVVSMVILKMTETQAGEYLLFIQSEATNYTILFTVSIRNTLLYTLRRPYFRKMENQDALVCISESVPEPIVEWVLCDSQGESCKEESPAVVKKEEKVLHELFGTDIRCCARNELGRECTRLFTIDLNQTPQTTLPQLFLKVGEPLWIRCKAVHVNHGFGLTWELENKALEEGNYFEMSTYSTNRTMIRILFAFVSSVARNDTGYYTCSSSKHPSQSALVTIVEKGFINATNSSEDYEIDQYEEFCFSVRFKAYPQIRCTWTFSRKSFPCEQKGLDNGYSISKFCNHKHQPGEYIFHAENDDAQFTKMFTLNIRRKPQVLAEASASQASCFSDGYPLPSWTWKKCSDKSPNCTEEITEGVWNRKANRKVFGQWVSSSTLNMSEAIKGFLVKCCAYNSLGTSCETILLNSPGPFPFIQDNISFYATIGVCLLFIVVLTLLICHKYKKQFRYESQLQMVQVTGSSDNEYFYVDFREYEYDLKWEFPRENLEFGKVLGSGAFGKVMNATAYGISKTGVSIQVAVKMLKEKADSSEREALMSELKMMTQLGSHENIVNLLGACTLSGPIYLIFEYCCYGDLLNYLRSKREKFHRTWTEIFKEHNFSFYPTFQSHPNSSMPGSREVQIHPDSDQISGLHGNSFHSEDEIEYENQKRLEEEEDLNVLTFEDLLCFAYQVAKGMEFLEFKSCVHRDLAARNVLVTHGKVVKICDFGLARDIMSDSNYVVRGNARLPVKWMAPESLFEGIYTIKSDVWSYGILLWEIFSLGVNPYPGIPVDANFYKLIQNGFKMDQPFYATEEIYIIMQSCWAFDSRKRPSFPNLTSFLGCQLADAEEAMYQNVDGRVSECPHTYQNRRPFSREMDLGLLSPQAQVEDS
# Summary of the method: as §1
# MAPKAPK5 (PRAK) = target: T7, MAPKAPK5 (PRAK) (Homo sapiens, UniProt Q8IW41)
# T7 construct: purchased ThermoFisher (SelectScreen, Z'-LYTE)
# T7 sequence (Q8IW41 1-473): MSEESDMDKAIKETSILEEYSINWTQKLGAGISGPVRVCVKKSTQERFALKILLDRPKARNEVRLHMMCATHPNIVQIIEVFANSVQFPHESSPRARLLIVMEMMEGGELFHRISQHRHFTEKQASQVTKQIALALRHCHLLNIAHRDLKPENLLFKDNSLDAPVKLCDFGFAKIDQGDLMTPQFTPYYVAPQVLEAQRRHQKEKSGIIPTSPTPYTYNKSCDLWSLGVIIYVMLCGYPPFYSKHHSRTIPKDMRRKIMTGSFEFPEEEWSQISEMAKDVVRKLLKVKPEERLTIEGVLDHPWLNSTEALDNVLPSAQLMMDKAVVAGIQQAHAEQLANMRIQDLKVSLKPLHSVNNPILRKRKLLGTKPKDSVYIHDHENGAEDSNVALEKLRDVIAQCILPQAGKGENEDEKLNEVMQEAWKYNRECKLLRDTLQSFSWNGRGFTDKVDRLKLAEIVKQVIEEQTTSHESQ
# Summary of the method: as §1
# FES (FPS) = target: T8, FES (FPS) (Homo sapiens, UniProt P07332)
# T8 construct: purchased ThermoFisher (SelectScreen, Z'-LYTE)
# Summary of the method: as §1
# MAPK8 (JNK1) = target: T9, MAPK8 (JNK1) (Homo sapiens, UniProt P45983); details: 10 µM compound; ATP 100
# T9 construct: purchased ThermoFisher (SelectScreen, Z'-LYTE)
# Summary of the method: as §1
# GRK4 = target: T10, GRK4 (Homo sapiens, UniProt P32298)
# T10 construct: purchased ThermoFisher (SelectScreen, Z'-LYTE)
# Summary of the method: as §1
# CSNK1E (CK1 epsilon) = target: T11, CSNK1E (CK1 epsilon) (Homo sapiens, UniProt P49674)
# T11 construct: purchased ThermoFisher (SelectScreen, Z'-LYTE)
# Summary of the method: as §1
# IKBKE (IKK epsilon) = target: T12, IKBKE (IKK epsilon) (Homo sapiens, UniProt Q14164)
# T12 construct: purchased ThermoFisher (SelectScreen, Z'-LYTE)
# T12 sequence (Q14164 1-716): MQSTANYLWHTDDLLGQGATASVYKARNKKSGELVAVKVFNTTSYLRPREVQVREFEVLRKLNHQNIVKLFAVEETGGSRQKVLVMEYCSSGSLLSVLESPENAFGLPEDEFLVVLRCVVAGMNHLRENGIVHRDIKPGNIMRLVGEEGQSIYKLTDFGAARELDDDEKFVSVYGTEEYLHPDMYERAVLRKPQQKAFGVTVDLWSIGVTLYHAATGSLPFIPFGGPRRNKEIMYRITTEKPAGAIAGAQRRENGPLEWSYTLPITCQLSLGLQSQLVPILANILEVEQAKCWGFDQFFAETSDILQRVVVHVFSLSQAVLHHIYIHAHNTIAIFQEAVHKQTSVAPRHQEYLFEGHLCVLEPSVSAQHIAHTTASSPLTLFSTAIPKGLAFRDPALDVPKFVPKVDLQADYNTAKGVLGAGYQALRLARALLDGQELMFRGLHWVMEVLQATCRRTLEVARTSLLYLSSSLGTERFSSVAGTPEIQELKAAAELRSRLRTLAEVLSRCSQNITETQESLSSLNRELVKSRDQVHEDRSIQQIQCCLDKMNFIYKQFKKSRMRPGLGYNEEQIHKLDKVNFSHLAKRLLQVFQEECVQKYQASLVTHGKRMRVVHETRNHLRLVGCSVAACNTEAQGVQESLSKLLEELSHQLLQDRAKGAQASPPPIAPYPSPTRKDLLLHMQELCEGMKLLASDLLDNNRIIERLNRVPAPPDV
# Summary of the method: as §1
# T8 sequence (P07332 whole entry): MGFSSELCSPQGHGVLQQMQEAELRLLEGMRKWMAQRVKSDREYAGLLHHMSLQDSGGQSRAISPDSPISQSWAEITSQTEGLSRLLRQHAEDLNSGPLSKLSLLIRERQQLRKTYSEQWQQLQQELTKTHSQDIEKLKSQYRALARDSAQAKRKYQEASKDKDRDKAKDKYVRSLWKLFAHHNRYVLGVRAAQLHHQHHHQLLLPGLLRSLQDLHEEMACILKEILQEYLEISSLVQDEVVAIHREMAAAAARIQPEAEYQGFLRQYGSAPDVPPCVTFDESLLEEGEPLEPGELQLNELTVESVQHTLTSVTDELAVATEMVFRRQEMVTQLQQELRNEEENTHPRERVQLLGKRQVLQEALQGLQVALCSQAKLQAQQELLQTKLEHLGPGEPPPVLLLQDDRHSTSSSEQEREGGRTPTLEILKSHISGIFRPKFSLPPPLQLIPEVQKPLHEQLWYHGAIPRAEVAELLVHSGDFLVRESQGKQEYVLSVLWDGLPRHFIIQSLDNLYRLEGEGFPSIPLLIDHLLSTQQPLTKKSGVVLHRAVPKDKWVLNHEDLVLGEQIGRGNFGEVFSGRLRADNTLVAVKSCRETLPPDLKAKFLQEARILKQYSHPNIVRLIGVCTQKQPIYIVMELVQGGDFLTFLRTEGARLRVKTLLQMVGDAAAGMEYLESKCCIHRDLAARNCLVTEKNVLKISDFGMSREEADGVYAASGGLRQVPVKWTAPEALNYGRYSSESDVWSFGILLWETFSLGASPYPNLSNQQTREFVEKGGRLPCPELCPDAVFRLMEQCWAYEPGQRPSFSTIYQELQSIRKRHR
# T11 sequence (P49674 whole entry): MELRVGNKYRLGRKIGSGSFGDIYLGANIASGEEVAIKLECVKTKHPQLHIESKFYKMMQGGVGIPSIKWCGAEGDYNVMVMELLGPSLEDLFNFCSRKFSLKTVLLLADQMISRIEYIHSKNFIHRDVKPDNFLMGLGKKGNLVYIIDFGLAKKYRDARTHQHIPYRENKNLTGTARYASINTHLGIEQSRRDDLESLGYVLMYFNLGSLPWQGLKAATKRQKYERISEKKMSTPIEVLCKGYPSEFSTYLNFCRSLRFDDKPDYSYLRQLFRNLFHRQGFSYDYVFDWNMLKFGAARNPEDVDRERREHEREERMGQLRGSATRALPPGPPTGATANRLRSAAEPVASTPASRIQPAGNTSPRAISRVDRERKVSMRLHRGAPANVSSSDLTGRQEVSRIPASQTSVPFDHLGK
# T10 sequence (P32298 whole entry): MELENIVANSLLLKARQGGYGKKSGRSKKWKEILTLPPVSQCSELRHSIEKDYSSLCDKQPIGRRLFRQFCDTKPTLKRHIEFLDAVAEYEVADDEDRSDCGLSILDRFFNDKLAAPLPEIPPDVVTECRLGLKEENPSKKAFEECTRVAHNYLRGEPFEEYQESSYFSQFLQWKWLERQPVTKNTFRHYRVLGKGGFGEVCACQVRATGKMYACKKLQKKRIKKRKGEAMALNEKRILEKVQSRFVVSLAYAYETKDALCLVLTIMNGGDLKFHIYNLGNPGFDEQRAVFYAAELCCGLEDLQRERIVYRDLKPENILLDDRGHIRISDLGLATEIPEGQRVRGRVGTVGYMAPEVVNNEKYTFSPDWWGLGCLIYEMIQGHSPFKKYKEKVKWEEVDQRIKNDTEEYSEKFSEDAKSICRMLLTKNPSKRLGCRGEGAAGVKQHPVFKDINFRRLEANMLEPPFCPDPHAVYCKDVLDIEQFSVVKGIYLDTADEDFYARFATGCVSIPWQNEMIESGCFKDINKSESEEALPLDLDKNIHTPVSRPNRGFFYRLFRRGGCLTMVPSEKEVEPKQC
# T2 sequence (P09619 33-1106): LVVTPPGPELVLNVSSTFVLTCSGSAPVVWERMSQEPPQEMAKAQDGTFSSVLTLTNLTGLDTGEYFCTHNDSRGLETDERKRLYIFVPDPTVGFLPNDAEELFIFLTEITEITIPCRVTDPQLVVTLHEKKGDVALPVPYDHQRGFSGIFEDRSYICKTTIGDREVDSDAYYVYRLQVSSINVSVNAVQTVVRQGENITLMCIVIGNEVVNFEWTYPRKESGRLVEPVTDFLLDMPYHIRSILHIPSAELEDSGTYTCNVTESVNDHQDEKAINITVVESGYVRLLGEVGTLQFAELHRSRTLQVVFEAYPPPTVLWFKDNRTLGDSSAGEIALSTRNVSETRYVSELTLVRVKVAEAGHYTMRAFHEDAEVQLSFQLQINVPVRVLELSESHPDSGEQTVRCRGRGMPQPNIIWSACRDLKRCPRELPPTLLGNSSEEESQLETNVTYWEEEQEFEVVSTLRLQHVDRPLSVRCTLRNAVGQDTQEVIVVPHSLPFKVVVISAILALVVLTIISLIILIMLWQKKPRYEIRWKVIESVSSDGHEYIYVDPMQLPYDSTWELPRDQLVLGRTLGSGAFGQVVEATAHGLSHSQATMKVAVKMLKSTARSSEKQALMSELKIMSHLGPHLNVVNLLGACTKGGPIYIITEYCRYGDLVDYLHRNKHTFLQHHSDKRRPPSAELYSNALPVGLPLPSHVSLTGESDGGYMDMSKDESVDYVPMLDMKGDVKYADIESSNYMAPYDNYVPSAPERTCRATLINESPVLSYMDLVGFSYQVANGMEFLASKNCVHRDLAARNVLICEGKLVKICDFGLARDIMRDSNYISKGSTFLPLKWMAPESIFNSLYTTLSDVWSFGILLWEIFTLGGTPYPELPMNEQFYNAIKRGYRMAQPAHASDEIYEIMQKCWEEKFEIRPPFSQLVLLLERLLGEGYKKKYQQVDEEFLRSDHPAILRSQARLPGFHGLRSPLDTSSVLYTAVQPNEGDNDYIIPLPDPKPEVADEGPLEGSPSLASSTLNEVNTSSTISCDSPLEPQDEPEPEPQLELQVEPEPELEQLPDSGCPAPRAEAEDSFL
# T1 sequence (Q9UK32 whole entry): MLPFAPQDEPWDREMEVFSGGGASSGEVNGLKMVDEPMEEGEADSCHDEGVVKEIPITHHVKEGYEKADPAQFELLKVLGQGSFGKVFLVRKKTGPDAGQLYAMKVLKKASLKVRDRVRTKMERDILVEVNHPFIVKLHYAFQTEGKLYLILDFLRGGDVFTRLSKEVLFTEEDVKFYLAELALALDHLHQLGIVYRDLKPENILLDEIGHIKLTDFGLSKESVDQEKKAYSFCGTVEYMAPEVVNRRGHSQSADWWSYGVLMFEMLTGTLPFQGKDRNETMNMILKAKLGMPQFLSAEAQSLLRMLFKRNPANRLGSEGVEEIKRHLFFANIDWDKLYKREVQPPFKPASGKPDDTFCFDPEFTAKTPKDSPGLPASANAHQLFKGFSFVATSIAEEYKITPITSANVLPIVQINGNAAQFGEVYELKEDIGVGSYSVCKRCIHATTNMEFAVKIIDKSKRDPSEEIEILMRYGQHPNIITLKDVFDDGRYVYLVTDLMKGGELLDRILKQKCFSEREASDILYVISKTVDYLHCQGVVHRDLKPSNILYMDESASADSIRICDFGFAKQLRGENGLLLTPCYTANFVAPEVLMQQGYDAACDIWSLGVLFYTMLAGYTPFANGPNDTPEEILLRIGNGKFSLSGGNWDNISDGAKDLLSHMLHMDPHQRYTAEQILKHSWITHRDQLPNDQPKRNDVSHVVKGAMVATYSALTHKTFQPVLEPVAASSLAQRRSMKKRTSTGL
# T5 sequence (P34947 whole entry): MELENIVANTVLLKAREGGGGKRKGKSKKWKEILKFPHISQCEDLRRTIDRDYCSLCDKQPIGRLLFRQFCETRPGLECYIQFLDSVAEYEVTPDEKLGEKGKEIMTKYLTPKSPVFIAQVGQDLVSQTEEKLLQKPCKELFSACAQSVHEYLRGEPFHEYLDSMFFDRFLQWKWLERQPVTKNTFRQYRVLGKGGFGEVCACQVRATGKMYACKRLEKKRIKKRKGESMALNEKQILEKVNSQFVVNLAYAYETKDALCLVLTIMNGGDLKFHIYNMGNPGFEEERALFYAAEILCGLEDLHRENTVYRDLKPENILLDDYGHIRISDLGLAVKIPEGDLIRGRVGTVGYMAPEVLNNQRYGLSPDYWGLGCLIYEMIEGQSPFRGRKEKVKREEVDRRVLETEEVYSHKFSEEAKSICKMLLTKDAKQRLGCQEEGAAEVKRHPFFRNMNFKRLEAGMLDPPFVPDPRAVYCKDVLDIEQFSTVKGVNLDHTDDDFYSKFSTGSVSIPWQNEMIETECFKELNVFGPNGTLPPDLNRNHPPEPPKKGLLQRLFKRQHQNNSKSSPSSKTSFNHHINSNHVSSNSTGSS
# T3 sequence (Q16539 whole entry): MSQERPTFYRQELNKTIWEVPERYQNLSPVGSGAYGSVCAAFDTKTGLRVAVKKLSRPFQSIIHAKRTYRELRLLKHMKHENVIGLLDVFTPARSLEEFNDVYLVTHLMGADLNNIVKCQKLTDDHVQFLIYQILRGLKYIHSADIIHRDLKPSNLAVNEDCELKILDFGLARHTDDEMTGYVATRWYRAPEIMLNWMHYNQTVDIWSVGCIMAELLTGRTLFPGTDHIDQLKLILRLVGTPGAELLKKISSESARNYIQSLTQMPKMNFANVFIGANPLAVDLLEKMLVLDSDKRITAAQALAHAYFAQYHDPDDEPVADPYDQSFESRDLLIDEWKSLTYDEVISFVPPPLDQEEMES
# T9 sequence (P45983 whole entry): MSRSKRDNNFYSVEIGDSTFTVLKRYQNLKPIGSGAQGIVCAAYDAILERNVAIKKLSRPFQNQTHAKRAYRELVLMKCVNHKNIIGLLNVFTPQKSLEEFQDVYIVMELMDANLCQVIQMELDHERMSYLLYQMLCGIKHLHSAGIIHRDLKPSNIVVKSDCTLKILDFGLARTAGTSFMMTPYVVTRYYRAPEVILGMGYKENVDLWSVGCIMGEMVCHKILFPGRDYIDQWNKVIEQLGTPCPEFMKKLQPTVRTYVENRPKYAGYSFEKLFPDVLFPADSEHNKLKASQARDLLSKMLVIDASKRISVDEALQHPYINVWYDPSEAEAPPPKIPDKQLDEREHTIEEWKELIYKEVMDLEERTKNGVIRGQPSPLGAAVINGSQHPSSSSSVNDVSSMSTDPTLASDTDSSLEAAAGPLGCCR
Compound,inhibition at 10 µM (RPS6KA6 (RSK4)),inhibition at 10 µM (PDGFRB (PDGFR beta)),inhibition at 10 µM (MAPK14 (p38 alpha)),inhibition at 10 µM (MAPK9 (JNK2)),inhibition at 10 µM (GRK5),inhibition at 10 µM (FLT3),inhibition at 10 µM (MAPKAPK5 (PRAK)),inhibition at 10 µM (FES (FPS)),inhibition at 10 µM (MAPK8 (JNK1)),inhibition at 10 µM (GRK4),inhibition at 10 µM (CSNK1E (CK1 epsilon)),inhibition at 10 µM (IKBKE (IKK epsilon)),also measured
"XMD8-92 [Compound 2, reference compound]",–,–,–,–,–,–,–,–,–,–,–,–,"RPS6KA6 (RSK4) % Inhibition (RPS6KA6 (RSK4); 10 µM compound, ATP Km app): 72%; PDGFRB (PDGFR beta) % Inhibition (PDGFRB (PDGFR beta); 10 µM compound, ATP Km app): 7%; MAPK14 (p38 alpha) % Inhibition (MAPK14 (p38 alpha)): 99%; MAPK9 (JNK2) % Inhibition (MAPK9 (JNK2)): 5.42%; GRK5 % Inhibition (GRK5; 10 µM compound, ATP Km app): 6%; FLT3 % Inhibition (FLT3; 10 µM compound, ATP Km app): 90%; MAPKAPK5 (PRAK) % Inhibition (MAPKAPK5 (PRAK); 10 µM compound, ATP Km app): 11%; FES (FPS) % Inhibition (FES (FPS); 10 µM compound, ATP Km app): 78%; MAPK8 (JNK1) % Inhibition (MAPK8 (JNK1)): 14%; GRK4 % Inhibition (GRK4; 10 µM compound, ATP Km app): 93%; CSNK1E (CK1 epsilon) % Inhibition (CSNK1E (CK1 epsilon); 10 µM compound, ATP Km app): 4%; IKBKE (IKK epsilon) % Inhibition (IKBKE (IKK epsilon); 10 µM compound, ATP Km app): 4.66%"
Cc1ncc(-c2nc(Nc3ccc(C(=O)NCCN4CCCCC4)cc3)ncc2F)n1C(C)C [Compound 3],82%,87%,22%,103%,39%,101%,45%,106%,96%,41%,81%,33%,–
Cc1cc(Nc2nc(N)nn2C(=O)NC(C)C)ccc1Cl [Compound 5],58%,10%,26%,4.72%,-0.422%,55%,-3.49%,9%,-11%,7%,2.61%,9%,–
